Assay results: the supplement of paper PMC6045584
± gives the standard deviation of the averaged measurements.

How the values were obtained:
[1] = compound: CC(=O)c1c(C)c2cnc(Nc3ccc(N4CCNCC4)cn3)nc2n(C2CCCC2)c1=O; assay: surviving fraction relative to DMSO-only wells; higher = less growth inhibition; settings: exposure time: 5 days
Summary of the method: (§1)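 Tumour cell lines in log phase were plated in 384-well plates at 250–500 cells per well, then, after 24 hours, exposed continuously for five days to inhibitors at 0.5, 1, 5, 10, 50, 100, 500 and 1000 nM. Viability came from CellTiter-Glo luminescence, and surviving fraction is that signal normalised to the median of DMSO-only wells. Plates were read after 10 minutes at room temperature, and each line, screened three times, was kept only when replicate Pearson r was >0.7 and median Z' was >0.3.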

OSI-906 = compound: C[C@]1(O)C[C@@H](c2nc(-c3ccc4ccc(-c5ccccc5)nc4c3)c3c(N)nccn32)C1 [OSI-906]; assay: as above; settings: exposure time: 5 days
Summary of the method: as §1

Test System	surviving fraction ([1]; 0.5 nM)	surviving fraction ([1]; 1 nM)	surviving fraction ([1]; 5 nM)	surviving fraction ([1]; 10 nM)	surviving fraction ([1]; 50 nM)	surviving fraction ([1]; 100 nM)	surviving fraction ([1]; 500 nM)	surviving fraction ([1]; 1000 nM)	surviving fraction (OSI-906; 0.5 nM)	surviving fraction (OSI-906; 1 nM)	surviving fraction (OSI-906; 5 nM)	surviving fraction (OSI-906; 10 nM)	surviving fraction (OSI-906; 50 nM)	surviving fraction (OSI-906; 100 nM)	surviving fraction (OSI-906; 500 nM)	surviving fraction (OSI-906; 1000 nM)
VP229 BREAST	1.1 ± 0.1	1.05 ± 0.04	1.06 ± 0.034	0.852 ± 0.093	0.995 ± 0.055	0.978 ± 0.15	0.932 ± 0.037	0.776 ± 0.075	0.856 ± 0.095	0.825 ± 0.078	0.874 ± 0.039	0.9 ± 0.038	0.925 ± 0.1	0.867 ± 0.048	0.767 ± 0.14	0.665 ± 0.11
93VU HEADNECK	1.09 ± 0.1	1.04 ± 0.09	1.12 ± 0.049	1.07 ± 0.025	1.18 ± 0.12	1.14 ± 0.14	1.17 ± 0.038	1.19 ± 0.045	0.821 ± 0.057	0.793 ± 0.053	0.836 ± 0.041	0.809 ± 0.13	0.974 ± 0.069	0.848 ± 0.014	0.711 ± 0.021	0.724 ± 0.23
BT549 BREAST	1.1 ± 0.12	1.124 ± 0.0096	1.22 ± 0.14	1.03 ± 0.098	1.13 ± 0.17	0.979 ± 0.16	1.12 ± 0.12	1.05 ± 0.036	0.867 ± 0.08	0.792 ± 0.027	0.836 ± 0.048	0.88 ± 0.13	1.11 ± 0.18	0.984 ± 0.059	1.1 ± 0.096	0.94 ± 0.067
OS25HAL BONE	1.03 ± 0.032	1.01 ± 0.0072	1.02 ± 0.011	1.04 ± 0.013	1.11 ± 0.013	1.05 ± 0.046	1.04 ± 0.054	0.982 ± 0.029	0.866 ± 0.066	0.892 ± 0.017	0.894 ± 0.025	0.871 ± 0.017	0.854 ± 0.039	0.762 ± 0.016	0.354 ± 0.015	0.256 ± 0.037
SCC003 HEADNECK	1.12 ± 0.06	1.02 ± 0.064	1.11 ± 0.036	1.08 ± 0.086	1.13 ± 0.14	1.08 ± 0.076	1.06 ± 0.081	0.884 ± 0.084	0.796 ± 0.018	0.865 ± 0.028	0.88 ± 0.099	0.87 ± 0.011	1.02 ± 0.022	1.04 ± 0.013	0.976 ± 0.04	0.845 ± 0.04
CHLA90 AUTONOMIC GANGLIA	1.04 ± 0.067	1.06 ± 0.02	1.04 ± 0.075	1.01 ± 0.055	0.934 ± 0.013	0.95 ± 0.035	0.839 ± 0.053	0.687 ± 0.015	0.883 ± 0.046	0.904 ± 0.019	0.862 ± 0.036	0.828 ± 0.08	0.832 ± 0.059	0.792 ± 0.084	0.78 ± 0.056	0.725 ± 0.082
MCF7 BREAST	0.965 ± 0.043	0.8934 ± 0.0072	0.891 ± 0.03	0.902 ± 0.026	0.956 ± 0.048	0.934 ± 0.01	0.925 ± 0.037	0.899 ± 0.032	0.832 ± 0.042	0.85 ± 0.044	0.816 ± 0.022	0.825 ± 0.056	0.831 ± 0.018	0.847 ± 0.029	0.722 ± 0.036	0.661 ± 0.013
CAL72 BONE	1.1 ± 0.066	1.12 ± 0.061	1.12 ± 0.025	1.13 ± 0.05	1.13 ± 0.037	1.14 ± 0.022	1.14 ± 0.078	1.07 ± 0.048	1.009 ± 0.006	1 ± 0.018	0.998 ± 0.049	0.966 ± 0.058	1 ± 0.038	0.98 ± 0.028	0.893 ± 0.048	0.861 ± 0.082
HCC1395 BREAST	1.22 ± 0.076	0.965 ± 0.17	1.19 ± 0.088	1.13 ± 0.087	1.28 ± 0.09	1.1 ± 0.11	1.31 ± 0.083	1.34 ± 0.07	0.851 ± 0.028	0.962 ± 0.13	0.977 ± 0.095	0.949 ± 0.027	1.04 ± 0.014	1.12 ± 0.13	0.847 ± 0.14	0.986 ± 0.043
MDAMB134 BREAST	1.031 ± 0.0085	1.07 ± 0.023	1.1 ± 0.013	1.07 ± 0.04	1.154 ± 0.0057	1.26 ± 0.22	1.28 ± 0.12	1.25 ± 0.11	0.667 ± 0.12	0.797 ± 0.014	0.679 ± 0.039	0.627 ± 0.037	0.732 ± 0.016	0.72 ± 0.0071	0.587 ± 0.016	0.616 ± 0.088
HCC1954 BREAST	0.996 ± 0.22	0.907 ± 0.29	1.07 ± 0.21	0.901 ± 0.4	1.39 ± 0.17	1.05 ± 0.056	1.29 ± 0.054	1.36 ± 0.092	0.33 ± 0.0085	0.37 ± 0.012	0.384 ± 0.046	0.475 ± 0.025	0.457 ± 0.063	0.384 ± 0.012	0.314 ± 0.04	0.35 ± 0.023
SIHA CERVIX	1.09 ± 0.085	1.12 ± 0.087	1.17 ± 0.11	1.11 ± 0.041	1.1 ± 0.039	1.13 ± 0.11	1.12 ± 0.15	1.02 ± 0.067	0.931 ± 0.067	0.888 ± 0.012	0.992 ± 0.11	0.886 ± 0.056	1.04 ± 0.057	1.01 ± 0.065	0.935 ± 0.046	0.966 ± 0.026
HOSMNG BONE	1.03 ± 0.021	0.978 ± 0.16	1.02 ± 0.042	1 ± 0.048	1.07 ± 0.072	1.05 ± 0.18	1.07 ± 0.094	1.06 ± 0.16	0.94 ± 0.099	0.941 ± 0.076	0.948 ± 0.06	0.98 ± 0.062	0.854 ± 0.086	0.993 ± 0.1	0.957 ± 0.056	1 ± 0.032
HU09 BONE	0.993 ± 0.16	0.91 ± 0.051	1.08 ± 0.022	1.05 ± 0.11	1.04 ± 0.15	1.19 ± 0.049	0.984 ± 0.17	1.04 ± 0.059	0.79 ± 0.071	0.852 ± 0.082	0.956 ± 0.067	0.909 ± 0.043	0.854 ± 0.11	0.785 ± 0.027	0.517 ± 0.087	0.481 ± 0.04
MG63 BONE	1.033 ± 0.0085	1.01 ± 0.044	1.039 ± 0.0042	1.04 ± 0.021	1.07 ± 0.035	1.07 ± 0.031	0.914 ± 0.02	0.868 ± 0.034	0.9333 ± 0.0045	0.919 ± 0.025	0.989 ± 0.033	0.963 ± 0.012	0.971 ± 0.03	0.943 ± 0.018	0.896 ± 0.017	0.9223 ± 0.0068
SUM159 BREAST	0.932 ± 0.26	0.942 ± 0.23	0.951 ± 0.18	0.893 ± 0.28	0.916 ± 0.3	0.842 ± 0.43	0.943 ± 0.27	0.925 ± 0.28	0.9647 ± 0.0076	0.948 ± 0.021	0.964 ± 0.021	0.944 ± 0.036	0.977 ± 0.013	0.95 ± 0.021	0.953 ± 0.012	0.927 ± 0.016
MDAMB157 BREAST	0.929 ± 0.05	0.884 ± 0.027	0.974 ± 0.042	0.973 ± 0.053	1.03 ± 0.12	1.01 ± 0.13	1 ± 0.12	0.902 ± 0.061	0.892 ± 0.048	0.875 ± 0.11	0.949 ± 0.058	0.946 ± 0.079	0.957 ± 0.11	0.855 ± 0.056	0.872 ± 0.037	0.884 ± 0.086
CAL120 BREAST	0.953 ± 0.017	0.965 ± 0.026	0.9478 ± 0.0082	0.9508 ± 0.0056	1.01 ± 0.014	0.974 ± 0.0098	0.9508 ± 0.0081	0.935 ± 0.013	0.895 ± 0.052	0.907 ± 0.054	0.937 ± 0.041	0.942 ± 0.026	0.901 ± 0.04	0.9 ± 0.066	0.895 ± 0.046	0.893 ± 0.058
ZR751 BREAST	1.07 ± 0.19	1.07 ± 0.057	0.923 ± 0.2	0.953 ± 0.15	1.13 ± 0.059	1.04 ± 0.11	1.23 ± 0.12	1.01 ± 0.054	0.893 ± 0.058	0.857 ± 0.08	0.879 ± 0.1	0.847 ± 0.069	0.819 ± 0.091	0.795 ± 0.076	0.634 ± 0.08	0.462 ± 0.022
SYO1 SYNOVIAL	0.989 ± 0.024	0.966 ± 0.021	0.984 ± 0.024	1.02 ± 0.054	0.995 ± 0.018	0.98 ± 0.066	0.792 ± 0.061	0.706 ± 0.055	0.795 ± 0.048	0.814 ± 0.044	0.832 ± 0.023	0.824 ± 0.058	0.838 ± 0.055	0.897 ± 0.033	0.897 ± 0.034	0.873 ± 0.016
CCK81 LARGE INTESTINE	–	–	–	–	–	–	–	–	0.782 ± 0.2	0.815 ± 0.089	0.87 ± 0.051	0.784 ± 0.036	0.726 ± 0.17	0.668 ± 0.13	0.414 ± 0.13	0.327 ± 0.058
